The source made the active and inactive calls. No cut-off for these calls is given here.
Key:
[1] = Half life in CD rat at 3 mg/kg, iv; format: ADME, organism-based; design: dose 3 mg/kg, route intravenous; conditions: in vivo
[2] = Half life in CD rat at 3 mg/kg, po; format: ADME, organism-based; design: dose 3 mg/kg, route oral; conditions: in vivo
Mus musculus [3] = assay: Inhibition of preatherosclerotic lesion in LDLR knockout mouse model at 1 mg/kg, po administered for 6 weeks by en-face analysis; format: functional; design: scale not given: the % may be the effect or the level left
[4] = molecular target: Estrogen receptor beta (Homo sapiens) (UniProt Q92731); assay: Antagonist activity at gal-ERbeta expressed in african green monkey CV1 cells co-expressing MH100 by luciferase reporter gene assay; format: functional, cell-based; conditions: CV-1
[5] = molecular target: T1, Peroxisome proliferator-activated receptor delta (Homo sapiens) (UniProt Q03181); assay: Antagonist activity at PPARdelta expressed in african green monkey CV1 cells co-expressing MH100 by luciferase reporter gene assay; format: functional, cell-based; conditions: CV-1
T1 sequence (whole entry): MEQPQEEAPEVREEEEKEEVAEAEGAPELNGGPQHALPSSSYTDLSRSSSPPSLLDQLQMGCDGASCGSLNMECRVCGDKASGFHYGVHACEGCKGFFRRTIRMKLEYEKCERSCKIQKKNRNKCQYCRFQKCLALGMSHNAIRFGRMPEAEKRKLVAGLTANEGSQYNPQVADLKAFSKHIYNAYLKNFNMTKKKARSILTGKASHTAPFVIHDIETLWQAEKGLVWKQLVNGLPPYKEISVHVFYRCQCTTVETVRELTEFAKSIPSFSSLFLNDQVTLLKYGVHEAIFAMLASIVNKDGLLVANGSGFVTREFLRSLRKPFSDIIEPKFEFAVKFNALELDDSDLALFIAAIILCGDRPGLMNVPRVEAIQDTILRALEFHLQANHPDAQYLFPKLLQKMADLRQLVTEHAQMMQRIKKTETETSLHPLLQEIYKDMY

Mus musculus [6] = assay: Reduction of plasma triglyceride level in western diet-induced hyperlipidemia LDLR knockout mouse model at 1 mg/kg, po administered for 6 weeks; format: functional; design: scale not given: the % may be the effect or the level left
[7] = molecular target: T2, Bile acid receptor (Homo sapiens) (UniProt Q96RI1); assay: Antagonist activity at human FXR expressed in african green monkey CV1 cells co-expressing RXRE with RXR co-factor by luciferase reporter gene assay; format: functional, cell-based; conditions: CV-1
T2 sequence (whole entry): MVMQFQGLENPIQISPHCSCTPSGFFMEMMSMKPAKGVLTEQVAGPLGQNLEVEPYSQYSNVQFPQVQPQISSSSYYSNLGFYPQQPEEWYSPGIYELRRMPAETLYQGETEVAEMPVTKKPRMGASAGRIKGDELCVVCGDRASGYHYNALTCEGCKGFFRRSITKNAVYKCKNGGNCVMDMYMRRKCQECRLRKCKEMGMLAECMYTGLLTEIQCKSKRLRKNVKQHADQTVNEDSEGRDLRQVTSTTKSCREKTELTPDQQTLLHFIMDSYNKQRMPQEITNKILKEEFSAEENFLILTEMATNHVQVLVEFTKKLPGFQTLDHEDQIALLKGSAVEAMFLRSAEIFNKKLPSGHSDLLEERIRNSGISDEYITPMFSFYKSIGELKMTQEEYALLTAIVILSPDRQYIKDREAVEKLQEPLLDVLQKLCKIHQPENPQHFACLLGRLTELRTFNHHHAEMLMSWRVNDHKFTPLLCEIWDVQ

[8] = Clearance in CD rat at 3 mg/kg, iv; format: ADME, organism-based; design: dose 3 mg/kg, route intravenous; conditions: in vivo
[9] = molecular target: Nuclear receptor subfamily 1 group I member 2 (Homo sapiens, UniProt O75469); assay: Agonist activity at SXR expressed in african green monkey CV1 cells co-expressing MH100 up to 10 uM by luciferase reporter gene assay relative to control; format: functional, cell-based; conditions: cv-1
Rattus norvegicus = assay: Clearance in CD rat assessed as liver blood flow at 3 mg/kg; format: ADME, organism-based; design: dose 3 mg/kg; conditions: in vivo
[10] = molecular target: T3, Peroxisome proliferator-activated receptor alpha (Homo sapiens) (UniProt Q07869); assay: Agonist activity at PPARalpha expressed in african green monkey CV1 cells co-expressing MH100 up to 10 uM by luciferase reporter gene assay relative to control; format: functional, cell-based; conditions: CV-1
T3 sequence (whole entry): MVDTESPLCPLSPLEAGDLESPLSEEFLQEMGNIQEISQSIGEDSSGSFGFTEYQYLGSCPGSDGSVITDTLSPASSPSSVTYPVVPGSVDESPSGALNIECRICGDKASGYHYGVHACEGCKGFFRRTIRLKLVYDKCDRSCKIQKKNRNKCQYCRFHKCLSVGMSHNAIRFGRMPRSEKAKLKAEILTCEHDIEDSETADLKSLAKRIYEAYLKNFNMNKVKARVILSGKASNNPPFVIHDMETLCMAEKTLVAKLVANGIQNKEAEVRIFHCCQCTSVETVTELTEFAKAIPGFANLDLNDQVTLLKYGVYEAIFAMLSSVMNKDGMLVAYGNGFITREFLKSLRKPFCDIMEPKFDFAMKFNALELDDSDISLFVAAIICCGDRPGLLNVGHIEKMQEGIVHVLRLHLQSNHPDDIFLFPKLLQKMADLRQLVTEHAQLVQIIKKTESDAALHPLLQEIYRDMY

[11] = molecular target: Mineralocorticoid receptor (Homo sapiens, UniProt P08235); assay: Antagonist activity at gal-MR expressed in african green monkey CV1 cells co-expressing MH100 by luciferase reporter gene assay; format: functional, cell-based, CV-1
[12] = molecular target: T4, Estrogen receptor (Homo sapiens) (UniProt P03372); assay: Agonist activity at gal-ERalpha expressed in african green monkey CV1 cells co-expressing MH100 up to 10 uM by luciferase reporter gene assay relative to control; format: functional, cell-based; conditions: CV-1
T4 sequence (whole entry): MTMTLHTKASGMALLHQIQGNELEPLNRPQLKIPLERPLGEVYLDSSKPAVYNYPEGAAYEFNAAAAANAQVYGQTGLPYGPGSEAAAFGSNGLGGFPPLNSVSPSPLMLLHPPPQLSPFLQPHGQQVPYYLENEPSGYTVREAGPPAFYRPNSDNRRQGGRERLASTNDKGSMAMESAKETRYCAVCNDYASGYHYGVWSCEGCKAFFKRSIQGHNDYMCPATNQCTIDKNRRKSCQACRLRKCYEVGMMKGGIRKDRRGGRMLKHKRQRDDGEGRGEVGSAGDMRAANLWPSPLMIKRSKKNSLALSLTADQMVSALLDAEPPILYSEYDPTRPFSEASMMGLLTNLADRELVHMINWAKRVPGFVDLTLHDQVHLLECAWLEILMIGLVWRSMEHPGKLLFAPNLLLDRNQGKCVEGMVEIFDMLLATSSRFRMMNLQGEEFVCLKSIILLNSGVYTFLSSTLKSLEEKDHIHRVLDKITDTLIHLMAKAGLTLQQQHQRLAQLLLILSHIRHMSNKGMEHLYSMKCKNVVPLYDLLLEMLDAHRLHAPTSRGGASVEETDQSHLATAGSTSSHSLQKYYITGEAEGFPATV

Mineralocorticoid receptor, sequence (P08235 whole entry): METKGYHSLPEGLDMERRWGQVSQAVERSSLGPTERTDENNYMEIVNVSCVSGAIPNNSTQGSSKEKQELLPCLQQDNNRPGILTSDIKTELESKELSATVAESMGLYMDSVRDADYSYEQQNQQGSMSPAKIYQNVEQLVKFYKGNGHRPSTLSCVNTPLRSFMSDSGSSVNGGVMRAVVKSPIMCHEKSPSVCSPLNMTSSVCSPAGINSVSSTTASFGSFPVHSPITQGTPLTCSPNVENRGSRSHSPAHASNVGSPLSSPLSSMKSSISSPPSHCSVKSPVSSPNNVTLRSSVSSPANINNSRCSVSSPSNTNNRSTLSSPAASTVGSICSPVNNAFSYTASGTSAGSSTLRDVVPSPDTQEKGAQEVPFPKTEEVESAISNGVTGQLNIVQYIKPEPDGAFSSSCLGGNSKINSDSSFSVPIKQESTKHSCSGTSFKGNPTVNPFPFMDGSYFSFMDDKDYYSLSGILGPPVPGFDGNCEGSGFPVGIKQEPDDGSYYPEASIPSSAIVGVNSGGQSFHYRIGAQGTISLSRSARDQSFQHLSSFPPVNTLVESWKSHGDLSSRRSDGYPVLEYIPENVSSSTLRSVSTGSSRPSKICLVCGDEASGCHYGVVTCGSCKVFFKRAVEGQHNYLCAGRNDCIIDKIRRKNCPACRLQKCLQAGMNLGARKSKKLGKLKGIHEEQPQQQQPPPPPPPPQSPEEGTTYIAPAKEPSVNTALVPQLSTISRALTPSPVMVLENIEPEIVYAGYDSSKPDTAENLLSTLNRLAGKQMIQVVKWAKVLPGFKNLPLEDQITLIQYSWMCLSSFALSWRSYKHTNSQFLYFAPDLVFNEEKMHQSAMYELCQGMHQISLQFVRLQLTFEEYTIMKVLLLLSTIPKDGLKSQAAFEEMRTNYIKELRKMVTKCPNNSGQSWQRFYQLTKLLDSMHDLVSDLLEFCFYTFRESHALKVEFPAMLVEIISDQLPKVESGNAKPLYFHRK
Nuclear receptor subfamily 1 group I member 2, sequence (O75469 whole entry): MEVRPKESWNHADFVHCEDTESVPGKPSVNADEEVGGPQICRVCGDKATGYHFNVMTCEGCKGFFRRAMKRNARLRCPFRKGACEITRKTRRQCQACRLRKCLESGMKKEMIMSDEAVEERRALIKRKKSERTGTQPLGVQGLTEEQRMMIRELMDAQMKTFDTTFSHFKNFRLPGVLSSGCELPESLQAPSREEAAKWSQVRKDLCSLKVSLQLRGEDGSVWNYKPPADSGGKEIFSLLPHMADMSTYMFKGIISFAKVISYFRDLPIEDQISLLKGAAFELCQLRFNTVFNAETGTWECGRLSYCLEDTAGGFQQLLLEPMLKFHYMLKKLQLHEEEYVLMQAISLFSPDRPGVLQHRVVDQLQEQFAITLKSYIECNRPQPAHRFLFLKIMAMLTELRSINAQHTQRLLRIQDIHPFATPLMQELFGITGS
Estrogen receptor beta (Homo sapiens), sequence (Q92731 whole entry): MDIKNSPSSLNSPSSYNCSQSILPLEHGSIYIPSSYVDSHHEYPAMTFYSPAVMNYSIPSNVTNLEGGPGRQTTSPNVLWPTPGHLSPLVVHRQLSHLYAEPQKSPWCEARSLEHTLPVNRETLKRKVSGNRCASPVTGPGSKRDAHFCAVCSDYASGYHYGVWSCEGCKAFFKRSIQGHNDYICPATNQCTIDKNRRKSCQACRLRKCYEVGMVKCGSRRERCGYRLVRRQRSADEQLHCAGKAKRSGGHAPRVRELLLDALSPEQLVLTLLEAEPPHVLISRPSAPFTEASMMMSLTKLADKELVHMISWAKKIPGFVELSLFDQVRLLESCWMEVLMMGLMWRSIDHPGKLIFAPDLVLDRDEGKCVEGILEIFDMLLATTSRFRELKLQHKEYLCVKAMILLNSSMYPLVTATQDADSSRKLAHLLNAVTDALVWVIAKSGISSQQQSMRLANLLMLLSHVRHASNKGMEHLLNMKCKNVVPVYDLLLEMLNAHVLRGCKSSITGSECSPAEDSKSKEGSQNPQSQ

## CC(C)OC(=O)C1=CN(C(=O)c2ccc(F)c(F)c2)CC(C)(C)c2c1[nH]c1ccccc21 [TUROFEXORATE ISOPROPYL]
[1]
  half-life: 40.1 h
[2]
  half-life: 24.6 h
Mus musculus [3]
  Activity: 18%
[4]
  Activity: inactive
[5]
  Activity: inactive
Mus musculus [6]
  Activity: 19%
[7]
  Activity: inactive
[8]
  clearance: 5.68 mL/min/kg
[9]
  Activity: Not Active
Rattus norvegicus
  LBF: 10%
[10]
  Activity: inactive
[11]
  IC50: 10 µM
[12]
  Activity: inactive

From ChEMBL document CHEMBL1140941 (J Med Chem, 2009)
